Target: recombinant human ASK1 kinase (Homo sapiens (Human), UniProt Q99683)
Assay: TR-FRET ASK1 (Apoptosis Signal-Regulating Kinase 1) kinase assay
Assay type: biochemical
Conditions: TR-FRET/HTRF, 4 nM ASK1, 1 μM STK3 peptide substrate, 100 μM ATP, 3 hr; average of quadruplicate determination
Text: I. TR-FRET ASK1 (Apoptosis Signal-Regulating Kinase 1) Kinase Assay
To evaluate the inhibitory activity of compounds of the invention against ASK1 (Apoptosis Signal-regulating Kinase 1) kinase, its activity was examined using a TR-FRET ASK1 kinase assay which determined the amount of phosphate transferred to a peptide substrate from ATP.
Dephosphorylated recombinant human ASK1 kinase was from Gilead Sciences. Small molecule kinase inhibitor staurosporine (Catalogue #S6942) and dithiothreitol (DTT, catalogue #43815-5G) were obtained from Sigma Chemicals (St. Louis, Mo.). ATP (catalogue #7724) was from Affymetrix (Santa Clara, Calif.) and test compounds were from Gilead Sciences. HTRF KinEASE™-STK S3 kit was obtained from Cisbio (Bedford, Mass.). All other reagents were of the highest grade commercially available.
The assay measures the phosphorylation level of a biotinylated peptide substrate by the ASK1 kinase using HTRF detection. This is a competitive, time-resolved fluorescence resonance energy transfer (TR-FRET) immunoassay, based on HTRF® KinEASE™-STK manual from Cisbio. Test compound, 1 μM STK3 peptide substrate, 4 nM of ASK1 kinase were incubated with 10 mM MOP buffer, pH. 7.0 containing 10 mM Mg-acetate, 0.025% NP-40, 1 mM DTT, 0.05% BSA and 1.5% glycerol for 30 minutes then 100 μM ATP was added to start the kinase reaction and incubated for 3 hr. Peptide antibody labeled with 1×Eu^3+ Cryptate buffer containing 10 mM EDTA and 125 nM Streptavidin XL665 were added to stop the reaction and phosphorylated peptide substrate was detected using Envision 2103 Multilabeled reader from PerkinElmer. The fluorescence was measured at 615 nm (Cryptate) and 665 nm (XL665) and a ratio of 665 nm/615 nm was calculated for each well. The resulting TR-FRET level (a ratio of 665 nm/615 nm) was proportional to the phosphorylation level. Under these assay conditions, the degree of phosphorylation of peptide substrate was linear with time and concentration for the enzyme. The assay system yielded consistent results with regard to Km and specific activities for the enzyme. For inhibition experiments (IC50 values), activities were performed with constant concentrations of ATP, peptide and several fixed concentrations of inhibitors. Staurosporine, the nonselective kinase inhibitor, was used as the positive control. All enzyme activity data are reported as an average of quadruplicate determination.
The IC50 values were calculated following equation: y=Range/{1+(x/IC50)^s}+Background where x and y represent the concentration of inhibitors and enzyme activity, respectively. Enzyme activity is expressed as the amount of Phosphate incorporated into substrate peptide from ATP. Range is the maximum y range (no inhibitor, DMSO control) and s is a slope factor.

Sequence of recombinant human ASK1 kinase (Q99683 whole entry): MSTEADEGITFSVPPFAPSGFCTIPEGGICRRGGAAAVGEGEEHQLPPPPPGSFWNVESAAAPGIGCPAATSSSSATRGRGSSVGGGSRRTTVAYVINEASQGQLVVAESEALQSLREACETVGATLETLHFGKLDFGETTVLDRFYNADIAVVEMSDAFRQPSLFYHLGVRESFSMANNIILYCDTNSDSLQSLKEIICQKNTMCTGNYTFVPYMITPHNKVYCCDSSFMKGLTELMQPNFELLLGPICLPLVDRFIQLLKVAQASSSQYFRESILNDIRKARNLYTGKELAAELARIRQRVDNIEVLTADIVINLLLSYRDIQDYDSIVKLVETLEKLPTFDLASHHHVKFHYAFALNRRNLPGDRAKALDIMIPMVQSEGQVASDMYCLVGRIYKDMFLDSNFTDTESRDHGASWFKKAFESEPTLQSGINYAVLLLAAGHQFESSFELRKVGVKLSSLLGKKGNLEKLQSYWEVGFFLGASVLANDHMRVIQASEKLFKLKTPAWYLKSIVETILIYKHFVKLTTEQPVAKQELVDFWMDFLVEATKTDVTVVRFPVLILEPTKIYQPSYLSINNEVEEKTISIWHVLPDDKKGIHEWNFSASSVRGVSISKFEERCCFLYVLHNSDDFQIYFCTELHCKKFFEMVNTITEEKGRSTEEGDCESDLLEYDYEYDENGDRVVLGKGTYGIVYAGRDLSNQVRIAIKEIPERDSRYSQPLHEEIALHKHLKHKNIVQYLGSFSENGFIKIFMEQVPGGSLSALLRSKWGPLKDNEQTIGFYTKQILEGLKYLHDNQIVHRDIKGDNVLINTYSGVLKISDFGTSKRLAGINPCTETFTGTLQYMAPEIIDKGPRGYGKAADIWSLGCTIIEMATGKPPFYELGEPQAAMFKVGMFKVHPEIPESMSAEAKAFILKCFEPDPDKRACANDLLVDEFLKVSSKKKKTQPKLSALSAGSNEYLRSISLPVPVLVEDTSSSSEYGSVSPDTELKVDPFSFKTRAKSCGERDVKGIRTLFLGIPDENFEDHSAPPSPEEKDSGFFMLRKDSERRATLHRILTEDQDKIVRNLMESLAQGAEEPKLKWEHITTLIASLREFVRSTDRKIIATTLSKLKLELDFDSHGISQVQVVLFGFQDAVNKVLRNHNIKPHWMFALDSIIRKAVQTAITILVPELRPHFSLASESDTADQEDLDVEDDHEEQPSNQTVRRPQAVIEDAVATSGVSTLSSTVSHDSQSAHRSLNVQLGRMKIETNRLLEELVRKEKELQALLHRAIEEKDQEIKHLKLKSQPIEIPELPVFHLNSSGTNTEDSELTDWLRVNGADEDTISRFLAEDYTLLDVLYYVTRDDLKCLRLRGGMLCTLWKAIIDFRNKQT

Structure (SMILES) | IC50 [nM]
O=C(Nc1csc(-c2nncn2C2CC2)n1)c1cc(-n2cnc(C3CC3)c2)c(N2CC(C(F)F)C2)cn1 [Compound 1, 4-(4-cyclopropylimidazol-1-yl)-N-[2-(4-cyclopropyl-1,2,4-triazol-3-yl)-1,3-thiazol-4-yl]-5-[3-(difluoromethyl)azetidin-1-yl]pyridine-2-carboxamide] | 2.2
N#CC1CN(c2cnc(C(=O)Nc3csc(-c4nncn4C4CC4)n3)cc2-n2cnc(C3CC3)c2)C1 [Compound 2, 5-(3-cyanoazetidin-1-yl)-4-(4-cyclopropylimidazol-1-yl)-N-[2-(4-cyclopropyl-1,2,4-triazol-3-yl)-1,3-thiazol-4-yl]pyridine-2-carboxamide] | 0.9
CC1(C#N)CN(c2cnc(C(=O)Nc3csc(-c4nncn4C4CC4)n3)cc2-n2cnc(C3CC3)c2)C1 [Compound 3, 5-(3-cyano-3-methylazetidin-1-yl)-4-(4-cyclopropyiimidazol-1-yl)-N-[2-(4-cyclopropyl-1,2,4-triazol-3-yl)-1,3-thiazol-4-yl]pyridine-2-carboxamide] | 1.9
COC1(C)CN(c2cnc(C(=O)Nc3csc(-c4nncn4C4CC4)n3)cc2-n2cnc(C3CC3)c2)C1 [Compound 4, 4-(4-cyclopropylimidazol-1-yl)-N-[2-(4-cyclopropyl-1,2,4-triazol-3-yl)-1,3-thiazol-4-yl]-5-(3-methoxy-3-methylazetidin-1-yl)pyridine-2-carboxamide] | 1.8
O=C(Nc1csc(-c2nncn2C2CC2)n1)c1cc(-n2cnc(C3CC3)c2)c(N2CC(F)(F)C2)cn1 [Compound 5, 4-(4-cyclopropylimidazol-1-yl)-N-[2-(4-cyclopropyl-1,2,4-triazol-3-yl)-1,3-thiazol-4-yl]-5-(3,3-difluoroazetidin-1-yl)pyridine-2-carboxamide] | 2.8
COC1CCN(c2cnc(C(=O)Nc3csc(-c4nncn4C4CC4)n3)cc2-n2cnc(C3CC3)c2)C1 (stereo not shown) [Compound 6, 4-(4-cyclopropylimidazol-1-yl)-N-[2-(4-cyclopropyl-1,2,4-triazol-3-yl)-1,3-thiazol-4-yl]-5-(3-methoxypyrrolidin-1-yl)pyridine-2-carboxamide] | 2.8
O=C(Nc1csc(-c2nncn2C2CC2)n1)c1cc(-n2cnc(C3CC3)c2)c(N2CCC(C(F)(F)F)CC2)cn1 [Compound 7, 4-(4-cyclopropylimidazol-1-yl)-N-[2-(4-cyclopropyl-1,2,4-triazol-3-yl)-1,3-thiazol-4-yl]-5-[4-(trifluoromethyl)piperidin-1-yl]pyridine-2-carboxamide] | 3.2
O=C(Nc1csc(-c2nncn2C2CC2)n1)c1cc(-n2cnc(C3CC3)c2)c(N2CCC(F)CC2)cn1 [Compound 8, 4-(4-cyclopropylimidazol-1-yl)-N-[2-(4-cyclopropyl-1,2,4-triazol-3-yl)-1,3-thiazol-4-yl]-5-(4-fluoropiperidin-1-yl)pyridine-2-carboxamide] | 2.5
N#CC1CCN(c2cnc(C(=O)Nc3csc(-c4nncn4C4CC4)n3)cc2-n2cnc(C3CC3)c2)CC1 [Compound 9, 5-(4-cyanopiperidin-1-yl)-4-(4-cyclopropylimidazol-1-yl)-N-[2-(4-cyclopropyl-1,2,4-triazol-3-yl)-1,3-thiazol-4-yl]pyridine-2-carboxamide] | 2.2
COC1CCN(c2cnc(C(=O)Nc3csc(-c4nncn4C4CC4)n3)cc2-n2cnc(C3CC3)c2)CC1 [Compound 10, 4-(4-cyclopropylimidazol-1-yl)-N-[2-(4-cyclopropyl-1,2,4-triazol-3-yl)-1,3-thiazol-4-yl]-5-(4-methoxypiperidin-1-yl)pyridine-2-carboxamide] | 3.2
CNC(=O)C1CCN(c2cnc(C(=O)Nc3csc(-c4nncn4C4CC4)n3)cc2-n2cnc(C3CC3)c2)CC1 [Compound 11, 4-(4-cyclopropylimidazol-1-yl)-N-[2-(4-cyclopropyl-1,2,4-triazol-3-yl)-1,3-thiazol-4-yl]-5-[4-(methylcarbamoyl)piperidin-1-yl]pyridine-2-carboxamide] | 0.4
COC1(C)CCN(c2cnc(C(=O)Nc3csc(-c4nncn4C4CC4)n3)cc2-n2cnc(C3CC3)c2)CC1 [Compound 12, 4-(4-cyclopropylimidazol-1-yl)-N-[2-(4-cyclopropyl-1,2,4-triazol-3-yl)-1,3-thiazol-4-yl]-5-(4-methoxy-4-methylpiperidin-1-yI)pyridine-2-carboxamide] | 14.2
O=C(Nc1csc(-c2nncn2C2CC2)n1)c1cc(-n2cnc(C3CC3)c2)c(N2CCN(CC(F)(F)F)CC2)cn1 [Compound 13, 4-(4-cyclopropylimidazol-1-yl)-N-[2-(4-cyclopropyl-1,2,4-triazol-3-yl)-1,3-thiazol-4-yl]-5-[4-(2,2,2-trifluoroethyl)piperazin-1-yl]pyridine-2-carboxamide] | 2.9
O=C(Nc1csc(-c2nncn2C2CC2)n1)c1cc(-n2cnc(C3CC3)c2)c(N2CCCOCC2)cn1 [Compound 14, 4-(4-cyclopropylimidazol-1-yl)-N-[2-(4-cyclopropyl-1,2,4-triazol-3-yl)-1,3-thiazol-4-yl]-5-(1,4-oxazepan-4-yl)pyridine-2-carboxamide] | 3.8
O=C(Nc1csc(-c2nncn2C2CC2)n1)c1cc(-n2cnc(C3CC3)c2)c(N2CCN3C(=O)OCC3C2)cn1 (stereo not shown) [Compound 16, 4-(4-cyclopropylimidazol-1-yl)-N-[2-(4-cyclopropyl-l,2,4-triazol-3-yl)-1,3-thiazol-4-yl]-5-(3-oxo-5,6,8,8a-tetrahydro-1H-[1,3]oxazolo[3,4-a]pyrazin-7-yl)pyridine-2-carboxamide] | 2.7
O=C(Nc1csc(-c2nncn2C2CC2)n1)c1cc(-n2cnc(C3CC3)c2)c(N2CC3CC3C2)cn1 (stereo not shown) [Compound 17, 5-(3-azabicyclo[3.1.0]hexan-3-yl)-4-(4-cyclopropylimidazol-1-yl)-N-[2-(4-cyclopropyl-1,2,4-triazol-3-yl)-3,3-thiazol-4-yl]pyridine-2-carboxamide] | 1.1
O=C(Nc1csc(-c2nncn2C2CC2)n1)c1cc(-n2cnc(C3CC3)c2)c(N2CC(N3CCOCC3)C2)cn1 [Compound 18, 4-(4-cyclopropylimidazol-1-yl)-N-[2-(4-cyclopropyl-1,2,4-triazol-3-yl)-1,3-thiazol-4-yl]-5-(3-morpholin-4-ylazetidin-1-yl)pyridine-2-carboxamide] | 2.3
O=C(Nc1csc(-c2nncn2C2CC2)n1)c1cc(-n2cnc(C3CC3)c2)c(N2CCN(C3CC3)CC2)cn1 [Compound 19, 4-(4-cyclopropylimidazol-1-yl)-5-(4-cyclopropylpiperazin-1-yl)-N-[2-(4-cyclopropyl-1,2,4-triazol-3-yl)-1,3-thiazol-4-yl]pyridine-2-carboxamide] | 2.8
O=C(Nc1csc(-c2nncn2C2CC2)n1)c1cc(-n2cnc(C3CC3)c2)c(N2CCN(CC3CC3)CC2)cn1 [Compound 20, 4-(4-cyclopropylimidazol-1-yl)-5-[4-(cyclopropylmethyl)piperazin-1-yl]-N-[2-(4-cyclopropyl-1,2,4-triazol-3-yl)-1,3-thiazol-4-yl]pyridine-2-carboxamide] | 2.5
O=C(Nc1csc(-c2nncn2C2CC2)n1)c1cc(-n2cnc(C3CC3)c2)c(N2CCC3(CC2)COC3)cn1 [Compound 21, 4-(4-cyclopropylimidazol-1-yl)-N-[2-(4-cyclopropyl-1,2,4-triazol-3-yl)-1,3-thiazol-4-yl]-5-(2-oxa-7-azaspiro[3.5]nonan-7-y!)pyridine-2-carboxamide] | 1.9
O=C(Nc1csc(-c2nncn2C2CC2)n1)c1cc(-n2cnc(C3CC3)c2)c(N2CC3(CCOCC3)C2)cn1 [Compound 22, 4-(4-cyclopropylimidazol-1-yl)-N-[2-(4-cyclopropyl-1,2,4-triazol-3-yl)-1,3-thiazol-4-yl]-5-(7-oxa-2-azaspiro[3.5]nonan-2-yl)pyridine-2-carboxamide] | 4.5
COCC1CN(c2cnc(C(=O)Nc3csc(-c4nncn4[C@@H](C)C(F)(F)F)n3)cc2-n2cnc(C3CC3)c2)C1 [Compound 23, (S)-4-(4-cyclopropyl-1H-imidazol-1-yl)-5-(3-(methoxymethyl)azetidin-1-yl)-N-(2-(4-(1,1,1-trifluoropropan-2-yl)-4H-1,2,4-triazol-3-yl)thiazol-4-yl)picolinamide] | 2

From patent US9169243B2, “Apoptosis signal-regulating kinase inhibitors” (Gilead Sciences, Inc., priority 2013, dated 2015)
